# Source: ChEMBL document CHEMBL1201862, “PubChem BioAssay data set” (2004)
# Activity calls are given as the source filed them.
# Columns and labels:
# [1] = Luminescent dose response cell-based high throughput screening assay for inhibitors of the Janus kinase 2 mutant JAK2V617F. [Related pubchem assays: 1446 (Primary screen.), 1521 (Confirmation assay.), 1486 (Counter screen.)]; assay type: functional
# [2] = luciferase reporter signal suppression in cells – H4 neuroglioma cells, luminescence, dose response (AID 1990); assay type: functional, cell-based
# [3] = molecular target: E3 ubiquitin-protein ligase Mdm2 (Homo sapiens, UniProt Q00987); experiment: MDM2-luc reporter signal enhancers, multi-concentration potency testing, MDM2 ubiquitin-protein ligase inhibitor program, whole-cell format, luminescence detection, 384-well microplate (AID 1394); assay type: functional;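 further: MDM2 E3 inhibitors raise luminescence so EC50 is for signal enhancement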
# HeLa = experiment: Cytotoxicity counterscreen assay for transcriptional activators of heat shock protein 70 (Hsp70). [Related pubchem assays: 1203, 1252 ]; assay type: functional; details: Homo sapiens;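 further: cells exposed to compound for 16 hours before readout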
# BJ [4] = experiment: BJ-TERT fibroblast viability loss – cell-based, RAS-independent, luminescence, dose response (AID 1933); assay type: functional; details: Homo sapiens
# [5] = Luminescence Cell-Based Dose Response HTS to Identify Inhibitors of 5'UTR Stem-Loop Driven Prion Protein mRNA Translation in H4 Neuroglioblastoma Cells. [Related pubchem assays: 1827 (Project Summary), 1813 (Primary HTS)]; assay type: functional
# [6] = alpha-synuclein stem-loop luciferase translation blockers – H4 neuroglioma cells, luminescence, confirmation (AID 1988); assay type: functional, cell-based
# BJ [7] = experiment: cells; assay type: functional, cell-based; details: Homo sapiens
# BJ [8] = experiment: BJ-TERT-LT-ST fibroblast viability loss – cell-based, RAS-independent, luminescence, dose response (AID 1935); assay type: functional; details: Homo sapiens;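 further: BJ fibroblasts immortalized with TERT plus LT and ST oncogenes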
# [9] = DRD fibroblast viability loss – cell-based, non-viral oncogenic, luminescence, dose response (AID 1934); assay type: functional; details: Homo sapiens
# [10] = molecular target: E3 ubiquitin-protein ligase Mdm2/Protein Mdm4 (Homo sapiens, UniProt O15151+Q00987); experiment: disruption of Mdm2/MdmX protein binding – luminescence detection, dose response (AID 504593); assay type: functional
# [11] = HEK-293T viability loss after treatment – luminescence, T-cell screen hits, cytotoxicity control for TCR NF-kB inhibitor project, dose response (AID 489026); assay type: functional, cell-based;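 further: cells exposed to compound about 14 hours before the viability readout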
# BJ [12] = experiment: growth inhibition of engineered Ras-driven BJ cells – cell-based, alamar blue fluorescence, cherrypicked samples, dose response (AID 2631); assay type: functional; details: Homo sapiens;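 further: confirmatory dose-response assay in RAS-dependent BJ fibroblasts engineered with TERT, LT and ST, with cytotoxicity read by fluorescence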
# INS1 = experiment: INS-1E survival protection against cytokine death – cell-based, luminescence, retest, dose response (AID 449756); assay type: functional; details: Rattus norvegicus;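 further: cell death triggered by IL-1 beta plus TNF-alpha plus IFN-gamma mixture; protective hits raise ATP signal compared with cytokine alone wells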
# [13] = molecular target: T1, Hepatocyte nuclear factor 4-alpha (Homo sapiens, UniProt P41235); assay type: functional, cell-based;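 further: biochemical luminescence-based dose-response counterscreen measuring inhibition of HNF4 dimerization, run alongside a screen for blockers of ABHD5–perilipin-5 interaction; split luciferase complementation of HNF4 fusion proteins in cell lysate measuring dimerization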
# T1 sequence (P41235 whole entry): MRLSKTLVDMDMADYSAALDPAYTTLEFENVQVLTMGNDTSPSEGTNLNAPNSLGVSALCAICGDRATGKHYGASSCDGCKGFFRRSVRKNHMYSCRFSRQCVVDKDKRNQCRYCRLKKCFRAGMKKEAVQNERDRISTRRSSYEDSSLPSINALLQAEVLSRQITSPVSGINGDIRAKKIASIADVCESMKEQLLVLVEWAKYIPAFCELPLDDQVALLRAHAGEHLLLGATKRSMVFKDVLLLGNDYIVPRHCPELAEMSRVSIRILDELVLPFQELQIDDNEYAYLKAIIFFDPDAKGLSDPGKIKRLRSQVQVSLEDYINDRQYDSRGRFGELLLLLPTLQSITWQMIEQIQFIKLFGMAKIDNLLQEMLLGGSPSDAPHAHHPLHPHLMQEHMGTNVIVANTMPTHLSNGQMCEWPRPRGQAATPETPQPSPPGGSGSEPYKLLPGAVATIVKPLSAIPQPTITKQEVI
# [14] = molecular target: T2, Tyrosine-protein phosphatase non-receptor type 7 (Homo sapiens, UniProt P35236); assay type: functional
# T2 sequence (P35236 whole entry): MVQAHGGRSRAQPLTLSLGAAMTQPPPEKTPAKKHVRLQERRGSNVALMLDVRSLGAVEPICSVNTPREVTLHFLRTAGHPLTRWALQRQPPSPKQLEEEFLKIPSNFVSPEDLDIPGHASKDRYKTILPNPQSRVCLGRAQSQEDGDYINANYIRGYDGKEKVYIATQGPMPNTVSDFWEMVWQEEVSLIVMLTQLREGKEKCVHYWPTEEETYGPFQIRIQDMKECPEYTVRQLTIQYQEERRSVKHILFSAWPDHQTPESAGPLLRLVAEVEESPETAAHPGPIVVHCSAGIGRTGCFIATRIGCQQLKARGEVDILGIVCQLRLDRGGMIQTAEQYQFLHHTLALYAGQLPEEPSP
# [15] = molecular target: Glyceraldehyde-3-phosphate dehydrogenase (Homo sapiens, UniProt P04406)
# [16] = molecular target: T3, Dual specificity protein phosphatase 6 (Rattus norvegicus, UniProt Q64346)
# T3 sequence (Q64346 whole entry): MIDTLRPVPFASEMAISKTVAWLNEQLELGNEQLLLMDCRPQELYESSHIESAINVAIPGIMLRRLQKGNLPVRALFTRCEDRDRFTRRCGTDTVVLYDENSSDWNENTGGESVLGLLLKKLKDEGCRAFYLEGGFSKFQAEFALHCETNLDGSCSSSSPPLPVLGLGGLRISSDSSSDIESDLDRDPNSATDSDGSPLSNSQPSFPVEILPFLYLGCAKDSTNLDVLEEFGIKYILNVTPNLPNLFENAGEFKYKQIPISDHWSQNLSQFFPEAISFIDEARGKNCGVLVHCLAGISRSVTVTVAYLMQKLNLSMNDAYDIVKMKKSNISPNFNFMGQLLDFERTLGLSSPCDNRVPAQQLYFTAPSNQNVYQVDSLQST
# [17] = molecular target: T4, Short transient receptor potential channel 4 (Mus musculus, UniProt Q9QUQ5); experiment: block of DAMGO-driven TRPC4 calcium entry – cell-based, HEK293 TRPC4/mu-opioid, Fluo-4 calcium, dose response (AID 434942); assay type: functional;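 further: potency of inhibitors blocking the TRPC4 calcium response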
# T4 sequence (Q9QUQ5 whole entry): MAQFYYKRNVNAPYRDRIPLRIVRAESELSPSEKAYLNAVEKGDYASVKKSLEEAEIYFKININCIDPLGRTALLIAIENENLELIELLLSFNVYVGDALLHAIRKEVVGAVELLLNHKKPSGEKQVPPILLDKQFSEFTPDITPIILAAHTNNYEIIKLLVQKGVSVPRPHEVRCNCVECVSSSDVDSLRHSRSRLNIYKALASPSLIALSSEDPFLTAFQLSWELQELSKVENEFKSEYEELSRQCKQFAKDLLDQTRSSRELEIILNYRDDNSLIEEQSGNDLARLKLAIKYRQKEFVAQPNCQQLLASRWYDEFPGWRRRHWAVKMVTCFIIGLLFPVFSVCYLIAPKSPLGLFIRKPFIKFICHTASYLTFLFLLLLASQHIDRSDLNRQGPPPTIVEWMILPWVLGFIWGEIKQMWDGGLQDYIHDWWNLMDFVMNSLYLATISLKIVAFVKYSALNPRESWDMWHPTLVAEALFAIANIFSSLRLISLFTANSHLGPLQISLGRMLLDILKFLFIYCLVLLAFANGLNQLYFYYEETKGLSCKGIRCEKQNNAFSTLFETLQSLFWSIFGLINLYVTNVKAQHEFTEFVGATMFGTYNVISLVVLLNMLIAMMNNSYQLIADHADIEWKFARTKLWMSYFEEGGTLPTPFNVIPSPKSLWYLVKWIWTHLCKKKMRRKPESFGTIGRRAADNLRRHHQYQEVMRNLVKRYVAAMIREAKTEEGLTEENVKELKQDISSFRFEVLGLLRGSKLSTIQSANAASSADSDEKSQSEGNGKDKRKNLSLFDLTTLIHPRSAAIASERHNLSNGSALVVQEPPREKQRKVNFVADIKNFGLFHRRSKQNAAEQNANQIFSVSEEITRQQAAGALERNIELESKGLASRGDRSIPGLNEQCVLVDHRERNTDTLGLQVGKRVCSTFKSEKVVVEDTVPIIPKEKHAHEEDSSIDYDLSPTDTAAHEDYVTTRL
# [18] = molecular target: T5, Dual specificity protein phosphatase 3 (Homo sapiens, UniProt P51452); experiment: SAR VHR1 Fluorescent Assay for In Vitro dose response studies. [Related pubchem assays (depositor defined):AID1654, AID1661, AID1878, AID1992, AID2004, AID2070, AID2085]; assay type: functional
# [19] = molecular target: T5, Dual specificity protein phosphatase 3; experiment: MOA VHR1 Fluorescent secondary assay for identification of redox-state modulating compounds. [Related pubchem assays (depositor defined):AID1654, AID1661, AID1878, AID1957]
# [20] = molecular target: T2, Tyrosine-protein phosphatase non-receptor type 7; experiment: redox-active compounds inhibiting HePTP phosphatase – biochemical, fluorescence, mechanism study (AID 2068); assay type: functional
# [21] = molecular target: T4, Short transient receptor potential channel 4; experiment: calcium entry via TRPC4 opening agents – cell-based, HEK293 TRPC4/mu-opioid, Fluo-4 calcium, dose response (AID 434937); assay type: functional
# [22] = molecular target: T3, Dual specificity protein phosphatase 6; assay type: functional
# Integrin alpha-L = Integrin alpha-L (Mus musculus, UniProt P24063); experiment: modulators of CD8 T cell-vesicle binding, dose response, powder samples, mouse 2C CD8+ cells (AID 504565); assay type: functional
# [23] = molecular target: Alkaline phosphatase, placental type (Homo sapiens, UniProt P05187); experiment: human placental alkaline phosphatase inhibition – biochemical, luminescence, confirmation (AID 1512); assay type: functional
# [24] = molecular target: T6, Alkaline phosphatase, tissue-nonspecific isozyme (Homo sapiens, UniProt P05186); experiment: potency against alkaline phosphatase TNAP – biochemical, luminescent, dose response, SAR follow-up (AID 1056)
# T6 sequence (P05186 whole entry): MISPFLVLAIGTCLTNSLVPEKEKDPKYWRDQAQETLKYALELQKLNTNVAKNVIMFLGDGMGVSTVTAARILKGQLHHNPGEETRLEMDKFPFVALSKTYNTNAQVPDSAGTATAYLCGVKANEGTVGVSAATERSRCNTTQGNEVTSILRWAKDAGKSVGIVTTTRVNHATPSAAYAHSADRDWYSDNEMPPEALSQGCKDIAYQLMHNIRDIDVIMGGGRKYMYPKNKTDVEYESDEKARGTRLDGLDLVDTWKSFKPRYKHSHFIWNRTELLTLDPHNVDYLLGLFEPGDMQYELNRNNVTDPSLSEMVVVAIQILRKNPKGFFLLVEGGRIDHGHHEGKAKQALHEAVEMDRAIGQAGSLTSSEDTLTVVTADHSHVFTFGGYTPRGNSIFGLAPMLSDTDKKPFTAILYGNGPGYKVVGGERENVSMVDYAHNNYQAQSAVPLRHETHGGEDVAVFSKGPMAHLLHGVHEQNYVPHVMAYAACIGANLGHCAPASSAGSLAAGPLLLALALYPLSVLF
# [25] = molecular target: T2, Tyrosine-protein phosphatase non-receptor type 7; experiment: SAR analysis of chemical inhibitors of HePTP using a Fluorescent assay - Set 2. [Related pubchem assays (depositor defined):AID1059, AID1077, AID1661, AID2085, AID521]; assay type: functional
# [26] = molecular target: T5, Dual specificity protein phosphatase 3; experiment: SAR VHR1 Fluorescent Assay for In Vitro dose response studies Set 2. [Related pubchem assays (depositor defined):AID1654, AID1661, AID1878]; assay type: functional
# Hexokinase = Hexokinase (Trypanosoma brucei, UniProt Q38C41); experiment: Confirmation assay for inhibitors of Trypanosoma brucei hexokinase 1-Analogue-first series. [Related pubchem assays (depositor defined):AID1430, AID1632, AID2516, AID2560, AID2579, AID2600, AID449725, AID492951]; assay type: functional
# [27] = molecular target: T7, Voltage-gated N-type calcium channel alpha-1B subunit/Amyloid beta A4 precursor protein-binding family A member 1 (Homo sapiens, UniProt Q00975+Q02410); assay type: protein assay
# [28] = molecular target: T7, Voltage-gated N-type calcium channel alpha-1B subunit/Amyloid beta A4 precursor protein-binding family A member 1; assay type: protein assay; remark: listed apart in the source
# T5 sequence (P51452 whole entry): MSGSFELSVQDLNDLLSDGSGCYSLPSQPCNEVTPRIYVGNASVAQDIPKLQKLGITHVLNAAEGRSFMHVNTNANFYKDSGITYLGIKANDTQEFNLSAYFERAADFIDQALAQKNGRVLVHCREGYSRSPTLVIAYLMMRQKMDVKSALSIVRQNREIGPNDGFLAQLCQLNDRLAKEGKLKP
# T7 sequence (Q00975 whole entry): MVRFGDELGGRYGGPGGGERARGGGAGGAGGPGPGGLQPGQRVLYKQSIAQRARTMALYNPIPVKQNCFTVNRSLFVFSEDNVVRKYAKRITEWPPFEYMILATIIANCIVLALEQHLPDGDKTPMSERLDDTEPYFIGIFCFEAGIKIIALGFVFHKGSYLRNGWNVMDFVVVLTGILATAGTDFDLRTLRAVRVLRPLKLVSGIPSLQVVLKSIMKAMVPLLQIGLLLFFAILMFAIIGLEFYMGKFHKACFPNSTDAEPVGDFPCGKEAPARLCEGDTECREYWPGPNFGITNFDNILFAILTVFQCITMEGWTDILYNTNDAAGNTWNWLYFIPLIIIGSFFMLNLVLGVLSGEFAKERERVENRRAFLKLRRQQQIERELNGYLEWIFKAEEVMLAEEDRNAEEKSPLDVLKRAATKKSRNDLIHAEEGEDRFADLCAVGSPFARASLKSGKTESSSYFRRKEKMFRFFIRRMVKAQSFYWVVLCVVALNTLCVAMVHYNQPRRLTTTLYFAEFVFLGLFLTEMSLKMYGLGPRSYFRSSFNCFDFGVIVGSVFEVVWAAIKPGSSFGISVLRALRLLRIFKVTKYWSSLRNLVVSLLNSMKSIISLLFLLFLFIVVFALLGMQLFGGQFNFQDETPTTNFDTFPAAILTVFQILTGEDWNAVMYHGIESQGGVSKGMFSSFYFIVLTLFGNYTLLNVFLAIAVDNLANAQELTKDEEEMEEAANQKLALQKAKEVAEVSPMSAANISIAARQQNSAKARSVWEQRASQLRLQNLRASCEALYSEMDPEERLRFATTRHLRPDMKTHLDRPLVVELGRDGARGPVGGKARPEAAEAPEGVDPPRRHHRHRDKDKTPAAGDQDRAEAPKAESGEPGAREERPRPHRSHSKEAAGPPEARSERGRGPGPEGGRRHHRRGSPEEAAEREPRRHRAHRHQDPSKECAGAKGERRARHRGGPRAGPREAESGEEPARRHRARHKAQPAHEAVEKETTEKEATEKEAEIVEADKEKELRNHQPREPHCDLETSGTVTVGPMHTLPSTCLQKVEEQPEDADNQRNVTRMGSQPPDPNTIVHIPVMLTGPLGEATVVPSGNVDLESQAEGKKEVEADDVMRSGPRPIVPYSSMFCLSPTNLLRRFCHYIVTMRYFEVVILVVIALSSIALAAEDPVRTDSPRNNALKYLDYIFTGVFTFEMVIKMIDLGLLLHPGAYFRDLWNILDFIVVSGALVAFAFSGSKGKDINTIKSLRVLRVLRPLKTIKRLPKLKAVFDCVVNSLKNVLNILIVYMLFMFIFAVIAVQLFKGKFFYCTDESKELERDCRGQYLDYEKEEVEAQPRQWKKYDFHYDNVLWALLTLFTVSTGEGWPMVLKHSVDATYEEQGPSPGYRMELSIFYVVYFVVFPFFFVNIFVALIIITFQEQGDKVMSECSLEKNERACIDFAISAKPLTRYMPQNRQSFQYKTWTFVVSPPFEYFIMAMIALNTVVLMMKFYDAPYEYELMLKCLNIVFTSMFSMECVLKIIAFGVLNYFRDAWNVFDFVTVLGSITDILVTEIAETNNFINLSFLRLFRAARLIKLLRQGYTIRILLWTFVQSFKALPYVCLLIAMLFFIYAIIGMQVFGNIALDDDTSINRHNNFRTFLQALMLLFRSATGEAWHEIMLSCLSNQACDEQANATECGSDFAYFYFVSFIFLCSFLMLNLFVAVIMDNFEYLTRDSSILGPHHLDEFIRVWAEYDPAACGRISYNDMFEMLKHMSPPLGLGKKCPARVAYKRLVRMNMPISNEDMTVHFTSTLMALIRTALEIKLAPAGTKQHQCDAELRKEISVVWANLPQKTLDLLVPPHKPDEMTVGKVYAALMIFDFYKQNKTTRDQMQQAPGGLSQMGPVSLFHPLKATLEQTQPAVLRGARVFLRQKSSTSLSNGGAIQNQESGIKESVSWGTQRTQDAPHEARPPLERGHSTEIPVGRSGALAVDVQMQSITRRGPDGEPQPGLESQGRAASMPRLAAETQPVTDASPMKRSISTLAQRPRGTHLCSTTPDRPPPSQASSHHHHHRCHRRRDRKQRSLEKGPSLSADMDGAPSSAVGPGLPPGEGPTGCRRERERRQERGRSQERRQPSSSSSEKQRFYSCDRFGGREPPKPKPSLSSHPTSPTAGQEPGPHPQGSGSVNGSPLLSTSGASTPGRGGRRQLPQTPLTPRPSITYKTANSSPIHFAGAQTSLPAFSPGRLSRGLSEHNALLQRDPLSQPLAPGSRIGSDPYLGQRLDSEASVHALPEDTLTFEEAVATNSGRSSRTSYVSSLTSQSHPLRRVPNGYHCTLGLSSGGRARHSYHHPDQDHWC
# T7 sequence (Q02410 whole entry): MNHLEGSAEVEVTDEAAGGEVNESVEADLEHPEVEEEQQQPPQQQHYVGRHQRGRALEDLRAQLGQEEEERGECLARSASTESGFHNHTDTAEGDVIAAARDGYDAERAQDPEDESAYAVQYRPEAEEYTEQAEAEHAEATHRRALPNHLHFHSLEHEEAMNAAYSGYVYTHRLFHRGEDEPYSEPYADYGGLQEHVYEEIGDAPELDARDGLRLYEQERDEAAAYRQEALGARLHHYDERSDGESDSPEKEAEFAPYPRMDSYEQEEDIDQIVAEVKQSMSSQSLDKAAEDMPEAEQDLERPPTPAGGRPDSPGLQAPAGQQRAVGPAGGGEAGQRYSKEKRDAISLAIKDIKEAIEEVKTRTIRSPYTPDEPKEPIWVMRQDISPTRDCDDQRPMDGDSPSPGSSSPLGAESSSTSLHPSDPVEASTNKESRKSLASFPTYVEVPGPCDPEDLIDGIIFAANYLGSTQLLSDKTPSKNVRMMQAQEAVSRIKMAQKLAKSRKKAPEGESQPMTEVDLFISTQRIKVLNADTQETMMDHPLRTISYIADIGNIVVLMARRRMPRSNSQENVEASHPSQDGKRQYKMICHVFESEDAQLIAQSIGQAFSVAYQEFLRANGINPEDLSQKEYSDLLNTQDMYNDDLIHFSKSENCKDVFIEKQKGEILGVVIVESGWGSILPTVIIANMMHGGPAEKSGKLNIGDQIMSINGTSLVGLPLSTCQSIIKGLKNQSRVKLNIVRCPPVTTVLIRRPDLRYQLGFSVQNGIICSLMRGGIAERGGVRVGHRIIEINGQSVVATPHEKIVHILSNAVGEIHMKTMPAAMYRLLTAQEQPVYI
# Sequence of Glyceraldehyde-3-phosphate dehydrogenase (P04406 whole entry): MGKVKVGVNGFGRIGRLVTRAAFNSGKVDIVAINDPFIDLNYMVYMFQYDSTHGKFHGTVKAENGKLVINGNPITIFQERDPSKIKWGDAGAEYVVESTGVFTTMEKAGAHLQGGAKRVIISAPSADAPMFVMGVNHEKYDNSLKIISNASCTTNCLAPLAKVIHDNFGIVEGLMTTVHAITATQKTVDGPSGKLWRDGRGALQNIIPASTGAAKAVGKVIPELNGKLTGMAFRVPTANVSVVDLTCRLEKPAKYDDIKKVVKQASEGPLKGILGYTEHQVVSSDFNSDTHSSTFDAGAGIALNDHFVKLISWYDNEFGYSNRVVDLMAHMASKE
# Sequence of E3 ubiquitin-protein ligase Mdm2 (Q00987 whole entry): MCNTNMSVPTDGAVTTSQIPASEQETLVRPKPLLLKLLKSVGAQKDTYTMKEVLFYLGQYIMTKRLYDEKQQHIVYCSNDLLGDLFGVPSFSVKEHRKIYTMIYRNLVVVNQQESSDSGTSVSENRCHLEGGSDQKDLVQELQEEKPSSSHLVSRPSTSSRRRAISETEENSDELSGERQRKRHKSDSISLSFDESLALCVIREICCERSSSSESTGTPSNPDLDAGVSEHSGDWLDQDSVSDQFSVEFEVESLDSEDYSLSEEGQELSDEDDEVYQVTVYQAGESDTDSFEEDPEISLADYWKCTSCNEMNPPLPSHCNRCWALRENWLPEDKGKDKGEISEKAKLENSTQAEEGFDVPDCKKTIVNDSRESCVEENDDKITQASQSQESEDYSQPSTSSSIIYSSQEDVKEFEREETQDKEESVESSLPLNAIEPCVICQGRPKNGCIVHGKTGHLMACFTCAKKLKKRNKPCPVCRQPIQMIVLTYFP
# Sequence of E3 ubiquitin-protein ligase Mdm2/Protein Mdm4 (Q00987 whole entry): as above
# Sequence of E3 ubiquitin-protein ligase Mdm2/Protein Mdm4 (O15151 whole entry): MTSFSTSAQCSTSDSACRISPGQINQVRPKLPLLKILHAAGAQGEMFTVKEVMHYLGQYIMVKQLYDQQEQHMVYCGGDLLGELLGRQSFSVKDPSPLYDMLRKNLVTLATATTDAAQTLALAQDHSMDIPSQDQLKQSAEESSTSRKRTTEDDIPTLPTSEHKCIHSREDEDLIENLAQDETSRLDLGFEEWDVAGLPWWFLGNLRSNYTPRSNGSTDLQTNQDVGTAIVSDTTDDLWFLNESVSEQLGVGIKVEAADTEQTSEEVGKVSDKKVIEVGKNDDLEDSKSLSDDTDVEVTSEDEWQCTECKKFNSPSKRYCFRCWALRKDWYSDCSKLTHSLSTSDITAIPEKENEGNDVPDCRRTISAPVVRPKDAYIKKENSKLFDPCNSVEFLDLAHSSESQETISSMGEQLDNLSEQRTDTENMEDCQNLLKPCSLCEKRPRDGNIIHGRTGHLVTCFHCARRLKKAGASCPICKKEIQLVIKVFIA
compound,measurement,setting,value
CCN1C/C(=C/c2ccc(OC)c(O)c2)C(=O)/C(=C/c2ccc(OC)c(O)c2)C1,IC50,[1],0.67 µM (active)
same,EC50,[2],0.374 µM (inconclusive)
same,EC50,[3],0.38 µM (active)
same,CC50,HeLa,> 3.67 µM (not active)
same,EC50,BJ [4],1.78 µM (inconclusive)
same,EC50,[5],0.221 µM (active)
same,EC50,[6],4.84 µM (active)
same,EC50,BJ [7],1.35 µM (inconclusive)
same,EC50,BJ [8],1.25 µM (inconclusive)
same,EC50,[9],1.34 µM (active)
same,IC50,[10],8.47 µM (active)
same,IC50,[11],> 80 µM (inactive)
same,EC50,BJ [12],0.38 µM (active)
same,AC50,INS1,4.09 µM (active)
same,IC50,[13],12.9 µM (inactive)
Cc1ccc2c(nc3s/c(=C\c4ccc(-c5ccccc5C(=O)O)o4)c(=O)n32)c1C,IC50,[14],3.88 µM (active)
same,IC50,[15],> 100 µM (not active)
same,IC50,[16],22 µM (active)
same,EC50,[17],5.31 µM (active)
same,IC50,[18],5.71 µM (active)
same,IC50,[19],2.94 µM (active)
same,IC50,[20],2.2 µM (active)
same,EC50,[21],6.68 µM (active)
same,IC50,[22],35.3 µM (active)
COc1ccc(S(=O)(=O)N2CCCC2C(=O)Nc2ccc(C(C)=O)cc2)cc1 (configuration not stated),EC50,Integrin alpha-L,0.04 µM (active)
COc1ccc(-c2nnc(SCC(=O)c3ccc(O)c(O)c3)n2-c2ccc(Cl)cc2)cc1,IC50,[23],25 µM (active)
same,IC50,[24],> 100 µM (inactive)
COc1cccc(CN2CCN(C(=S)Nc3ccc(S(N)(=O)=O)cc3)CC2)c1,IC50,[25],> 100 µM (inactive)
same,IC50,[26],> 100 µM (inactive)
COc1ccc(C(=O)Nc2cc(Cl)c(C)cc2C(=O)O)cc1,IC50,Hexokinase,10.3 µM (active)
COc1ccc2cc(/N=C/c3nc(-c4ccc(C)cc4)oc3O)cnc2c1,IC50,[27],10.3 µM (active)
same,IC50,[28],> 50 µM (inactive)
